This is an account of results in doi:10.1101/2025.11.04.686469, “Discovery of Host-Directed Small Molecules with Broad Anti-Leishmanial Efficacy” (bioRxiv, 2025).

Where only a bound is given, the exact number is not on record here.

The test system of data set [1] is THP-1 macrophages. Description: Effect of compounds on host cell viability (MTT). The format is cell-based. The settings on record: read-out: 24h LC50; THP1 macrophages, 24-hour incubation, MTT assay (Supplemental Table 2). An outline of the steps: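 THP-1 cells were differentiated with 150 nM PMA for 72 h, then exposed to compounds at 1–50 μM for 24 h; selected compounds were also run at 1–300 μM for 72 h. MTT at 0.5 mg/mL was added for 2 h at 37 °C, and formazan absorbance was read at 560 nm minus 670 nm.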
For orientation: Tetrazolium assays rely on reduction of a dye to a coloured formazan, in cell work by metabolically active cells.

Data set [2] has as its system intracellular L. donovani amastigotes. Description: Luminescent-based evaluation of intracellular anti-leishmanial activity in THP-1 macrophages. The format is cell-based, Leishmania donovani. The following applies: intracellular Leishmania donovani in THP1 macrophages, luminescence assay (Supplemental Table 2); read-out: Lum IC50. An outline of the steps: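 PMA-differentiated THP-1 macrophages (150 nM, 72 h) were infected 18 h with firefly luciferase-expressing L. donovani LV82 promastigotes, then washed. Infected cells were treated with compounds at 0.1-10 μM for 72 h. Surviving intracellular amastigotes were quantified by firefly luciferase luminescence after cell lysis and 10 min substrate incubation at room temperature.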

Consider `FC(F)(F)c1ccc(-c2nc(C(F)(F)F)cn2-c2ccc(NC3CCNC3)cc2)cc1` (stereo not shown) [Compound 296], for which, in data set [1], the CC50 was 12.9 µM. The IC50 in data set [2] was found to be 3 µM.

As for `CS(=O)(=O)c1ccc(-n2nc(C(F)(F)F)cc2-c2ccc(-c3ccc(C(F)(F)F)cc3)cc2)cc1` [Compound 179], the CC50 in data set [1] was 45 µM. In addition, the IC50 in data set [2] is > 10 µM.

Regarding `COc1ccc(-n2cc(C(F)(F)F)nc2-c2ccc(-c3ccccc3)cc2)cc1` [Compound 245], the CC50 in data set [1] was > 50 µM. Moreover, the IC50 in data set [2] is > 10 µM.

Take `CCc1cc(C(F)(F)F)nn1-c1ccc(NC2CCNC2)cc1` (stereo not shown) [Compound 318]: the CC50 in data set [1] stood at 27 µM. Further, in data set [2], the IC50 came out at 1.8 µM.

Regarding `O=[N+]([O-])c1ccc(-n2cc(C(F)(F)F)nc2-c2ccc(-c3ccc(C(F)(F)F)cc3)cc2)cc1` [Compound 154], in data set [1], the CC50 stood at 25.5 µM. Further, the IC50 in data set [2] came to 2.9 µM.

As for `NCCOCCN1CCC(Oc2ccc(-n3nc(C(F)(F)F)cc3C3CCCCC3)cc2)CC1` [Compound 423], the CC50 in data set [1] came out at 3.4 µM. The IC50 in data set [2] amounted to 6 µM.

Regarding `NC1CCN(c2ccc(-n3nc(C(F)(F)F)cc3-c3ccc(-c4ccc(S(F)(F)(F)(F)F)cc4)cc3)cc2)C1` (stereo not shown) [Compound 106], the CC50 in data set [1] stood at 6 µM. In addition, the IC50 in data set [2] worked out at 8.1 µM.

As for `O=C1CN(c2ccc(-n3cc(C(F)(F)F)nc3-c3ccc(C(F)(F)F)cc3)cc2)CCN1` [Compound 332], the CC50 in data set [1] was determined as 31.2 µM. For the same molecule, the half-inhibitory concentration (IC50) in data set [2] is 8 µM.

For the molecule `NCCCNC1CCN(c2ccc(-n3nc(C(F)(F)F)cc3C3CCCCC3)cc2)CC1` [Compound 420], in data set [1], the CC50 stood at 7 µM. Moreover, the 50% inhibitory concentration (IC50) in data set [2] was determined as 1 µM.

Consider `NC1CCN(c2ccc(-n3nc(C4CCCCC4)cc3C(F)(F)F)cc2)C1` (stereo not shown) [Compound 232], for which the CC50 in data set [1] turned out to be 14.4 µM. The concentration for half-maximal inhibition (IC50) in data set [2] came out at 2.6 µM.

Turning to `Nc1ccc(-n2nc(C(F)(F)F)cc2-c2ccc(-c3ccc(S(F)(F)(F)(F)F)cc3)cc2)cc1` [Compound 104], the CC50 in data set [1] was > 50 µM. In data set [2], the IC50 was > 10 µM.

In the case of `Fc1cccc(CN2CC(Nc3ccc(-n4nc(C(F)(F)F)cc4C4CCCCC4)cc3)C2)c1` [Compound 396], the CC50 in data set [1] is 23.3 µM. The half-maximal inhibitory concentration (IC50) in data set [2] was 6.1 µM.

`Fc1cccc(CN2CCN(c3ccc(-n4nc(C(F)(F)F)cc4-c4ccc(-c5ccc(C(F)(F)F)cc5)cc4)cc3)CC2)c1` [Compound 222]: the CC50 in data set [1] was > 50 µM. Also, the IC50 in data set [2] was > 10 µM.

Take `FC(F)(F)c1cc(C2CCCCC2)nn1-c1ccc(Br)cc1` [Compound 216]: the CC50 in data set [1] is > 50 µM. For the same molecule, in data set [2], the half-inhibitory concentration (IC50) was > 10 µM.

With `Fc1cccc(CN2CCC(Nc3ccc(-n4cc(C(F)(F)F)nc4-c4ccc(-c5ccc(C(F)(F)F)cc5)cc4)cc3)C2)c1` (stereo not shown) [Compound 243], the CC50 in data set [1] was > 50 µM. In data set [2], the IC50 is > 10 µM.

`CC(C)C#Cc1ccc(-c2cc(C(F)(F)F)nn2-c2ccc([N+](=O)[O-])cc2)cc1` [Compound 94]: the CC50 in data set [1] was 29 µM. Moreover, the 50% inhibitory concentration (IC50) in data set [2] is > 10 µM.

Regarding `FC(F)(F)c1ccc(-c2ccc(-c3cc(C(F)(F)F)nn3-c3ccc(NC4CCN(Cc5ccc(Cl)c(C(F)(F)F)c5)C4)cc3)cc2)cc1` (stereo not shown) [Compound 126], in data set [1], the CC50 was > 50 µM. In data set [2], the IC50 is > 10 µM.

Regarding `FC(F)(F)c1cc(-c2ccc(-c3ccsc3)cc2)n(-c2ccc(N3CCNCC3)cc2)n1` [Compound 210], in data set [1], the CC50 was 10.5 µM. Besides, the concentration for half-maximal inhibition (IC50) in data set [2] is 2.5 µM.

For `FC(F)(F)c1ccc(-c2ccc(-c3cc(C(F)(F)F)nn3-c3ccc(N4CC(NC5CCCC5)C4)cc3)cc2)cc1` [Compound 55], the CC50 in data set [1] came to 29.7 µM. Further, the half-maximal inhibitory concentration (IC50) in data set [2] is 8.5 µM.

Take `CC(C)(C)OC(=O)NC1CCN(c2ccc(-n3nc(C(F)(F)F)cc3-c3ccc(-c4ccc(C(F)(F)F)cc4)cc3)cc2)C1` (stereo not shown) [Compound 140]: the CC50 in data set [1] was > 50 µM. In data set [2], the half-inhibitory concentration (IC50) was > 10 µM.

For the molecule `O=[N+]([O-])c1ccc(-n2cc(C(F)(F)F)nc2-c2ccc(Br)cc2)cc1` [Compound 192], the CC50 in data set [1] is > 50 µM. In data set [2], the 50% inhibitory concentration (IC50) is > 10 µM.

Turning to `FC(F)(F)c1cc(-c2ccncc2)n(-c2ccc(Br)cc2)n1` [Compound 213], the CC50 in data set [1] is > 50 µM. The IC50 in data set [2] was > 10 µM.

With `NCC(=O)Nc1ccc(-c2cc(C(F)(F)F)nn2-c2ccc(-c3ccc(C(F)(F)F)cc3)cc2)cc1` [Compound 155], the CC50 in data set [1] amounted to 6.1 µM. In data set [2], the IC50 came out at 4 µM.

With `COc1ccc(-c2cc(C(F)(F)F)nn2-c2ccc(Br)cc2)cc1OC` [Compound 251], the CC50 in data set [1] was > 50 µM. Further, in data set [2], the concentration for half-maximal inhibition (IC50) is > 10 µM.

For `CC(C)(C)OC(=O)NC1CCN(C(=O)c2ccc(-n3cc(C(F)(F)F)nc3-c3ccc(-c4ccc(C(F)(F)F)cc4)cc3)c(F)c2)C1` (stereo not shown) [Compound 182], the CC50 in data set [1] is 18 µM. Also, the 50% inhibitory concentration (IC50) in data set [2] was 5.9 µM.

Consider `Cc1nn(-c2ccc(Br)cc2)c2ccccc12` [Compound 132], for which, in data set [1], the CC50 is > 50 µM. In data set [2], the IC50 is > 10 µM.

`N#Cc1ccc(CN2CCC(Oc3ccc(-n4nc(C(F)(F)F)cc4C4CCCCC4)cc3)CC2)cc1` [Compound 373]: the CC50 in data set [1] is > 50 µM. Further, in data set [2], the IC50 came out at 7 µM.

`FC(F)(F)c1cc(C2CCCCC2)n(-c2ccc(NC3CCN(Cc4ccccc4)CC3)cc2)n1` [Compound 321]: in data set [1], the CC50 stood at 23.9 µM. Also, the IC50 in data set [2] is 5.1 µM.

In the case of `CC(C)(C)c1cc(C(F)(F)F)nn1-c1ccc(N2CCC(N)C2)cc1` (stereo not shown) [Compound 203], the CC50 in data set [1] was 11.8 µM. The IC50 in data set [2] was 2.9 µM.

For `NCC(=O)N1CC(Nc2ccc(-n3nc(C(F)(F)F)cc3-c3ccc(-c4ccc(C(F)(F)F)cc4)cc3)cc2)C1` [Compound 118], the CC50 in data set [1] came out at 6.2 µM. Further, the concentration for half-maximal inhibition (IC50) in data set [2] came to 2.6 µM.

`FC(F)(F)c1ccc(-c2ccc(-c3cc(C(F)(F)F)nn3-c3ccc(NCCCCOc4ccccc4)cc3)cc2)cc1` [Compound 68]: the CC50 in data set [1] turned out to be 34.7 µM. The IC50 in data set [2] is > 10 µM.

Take `FC(F)(F)c1ccc(-c2ccc(-c3cc(C(F)(F)F)nn3-c3ccc(NC4CCN(Cc5ccccc5)CC4)cc3)cc2)cc1` [Compound 115]: the CC50 in data set [1] was 13.2 µM. Moreover, the IC50 in data set [2] worked out at 7.4 µM.

`CC(C)(C)OC(=O)N1CCC(Oc2ccc(-n3nc(C(F)(F)F)cc3-c3ccc(-c4ccc(C(F)(F)F)cc4)cc3)cc2)C1` (stereo not shown) [Compound 142]: in data set [1], the CC50 is > 50 µM. In addition, in data set [2], the half-maximal inhibitory concentration (IC50) is > 10 µM.

Turning to `FC(F)(F)Oc1ccc(-n2nc(C(F)(F)F)cc2-c2ccc(-c3ccc(C(F)(F)F)cc3)cc2)cc1` [Compound 186], the CC50 in data set [1] is > 50 µM. For the same molecule, the IC50 in data set [2] is > 10 µM.

As for `Cc1ccc(-c2cc(C(F)(F)F)nn2-c2ccc(Br)cc2)cc1` [Compound 196], the CC50 in data set [1] is > 50 µM. Also, the IC50 in data set [2] is > 10 µM.

With `CC(C)(C)OC(=O)NCC(=O)Nc1ccc(-n2cnc3ccccc32)cc1` [Compound 148], in data set [1], the CC50 was > 50 µM. Moreover, in data set [2], the IC50 was > 10 µM.

Regarding `FC(F)(F)c1ccc(-c2ccc3nc[nH]c3c2)cc1` [Compound 135], the CC50 in data set [1] is > 50 µM. The IC50 in data set [2] was > 10 µM.

`C#CCCCC(=O)NC1CCN(c2ccc(-n3nc(C(F)(F)F)cc3-c3ccc(-c4ccc(C(F)(F)F)cc4)cc3)cc2)CC1` [Compound 92]: the CC50 in data set [1] is 14.7 µM. The IC50 in data set [2] was > 10 µM.

As a reminder, the IC50 is the concentration that inhibits the measured activity by half.
